For assay [1], the target named is T1, Heat shock factor protein 1 (Mus musculus, UniProt P38532).
T1 sequence (P38532 whole entry): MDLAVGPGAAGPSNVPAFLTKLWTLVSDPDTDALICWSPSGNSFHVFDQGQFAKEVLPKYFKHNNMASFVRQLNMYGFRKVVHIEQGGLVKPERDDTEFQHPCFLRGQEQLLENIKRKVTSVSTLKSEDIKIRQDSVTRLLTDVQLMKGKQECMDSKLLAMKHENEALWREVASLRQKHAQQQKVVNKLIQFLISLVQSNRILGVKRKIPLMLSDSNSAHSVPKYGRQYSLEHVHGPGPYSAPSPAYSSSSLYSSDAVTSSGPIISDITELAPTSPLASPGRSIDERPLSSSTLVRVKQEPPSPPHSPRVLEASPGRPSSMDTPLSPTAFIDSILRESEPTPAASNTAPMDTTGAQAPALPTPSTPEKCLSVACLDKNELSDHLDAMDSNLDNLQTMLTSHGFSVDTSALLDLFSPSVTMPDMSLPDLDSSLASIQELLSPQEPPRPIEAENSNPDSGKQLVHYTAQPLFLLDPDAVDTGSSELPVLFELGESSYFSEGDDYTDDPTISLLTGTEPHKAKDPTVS
Put plainly: HSF1 potentiators in luciferase reporter cells, confirmation, cell-based, NIH3T3, luminescence, dose retest (AID 435004).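 Further: stress induced by proteasome inhibitor MG132 added 30 min after compound; luciferase reporter driven by HSF1 response element in NIH3T3 cells; actives raise luminescence as potentiators of the MG132 stress response.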 In kind it is functional.

For assay [2], the target named is G-protein coupled receptor 55 (Homo sapiens, UniProt Q9Y2T6). Description: GPR55 antagonists blocking LPI-driven arrestin recruitment, primary screen, imaging, U2OS, beta-arrestin-GFP, LPI agonist (AID 2013).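 Further: antagonist potency measured as reduced agonist-driven arrestin aggregation.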 In kind it is functional.
G-protein coupled receptor 55, sequence (Q9Y2T6 whole entry): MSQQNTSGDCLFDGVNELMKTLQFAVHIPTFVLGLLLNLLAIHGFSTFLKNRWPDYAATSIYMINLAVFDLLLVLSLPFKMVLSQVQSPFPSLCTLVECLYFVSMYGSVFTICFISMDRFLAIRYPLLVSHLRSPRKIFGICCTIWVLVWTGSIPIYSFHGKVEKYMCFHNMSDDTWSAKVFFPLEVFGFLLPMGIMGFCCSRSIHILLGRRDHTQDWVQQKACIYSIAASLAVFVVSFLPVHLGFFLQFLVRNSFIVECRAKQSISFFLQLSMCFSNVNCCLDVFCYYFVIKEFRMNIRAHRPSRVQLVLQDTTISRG
Assay [3] concerns the target T2, Protein RecA (Mycobacterium tuberculosis, UniProt P9WHJ3).
T2 sequence (P9WHJ3 whole entry): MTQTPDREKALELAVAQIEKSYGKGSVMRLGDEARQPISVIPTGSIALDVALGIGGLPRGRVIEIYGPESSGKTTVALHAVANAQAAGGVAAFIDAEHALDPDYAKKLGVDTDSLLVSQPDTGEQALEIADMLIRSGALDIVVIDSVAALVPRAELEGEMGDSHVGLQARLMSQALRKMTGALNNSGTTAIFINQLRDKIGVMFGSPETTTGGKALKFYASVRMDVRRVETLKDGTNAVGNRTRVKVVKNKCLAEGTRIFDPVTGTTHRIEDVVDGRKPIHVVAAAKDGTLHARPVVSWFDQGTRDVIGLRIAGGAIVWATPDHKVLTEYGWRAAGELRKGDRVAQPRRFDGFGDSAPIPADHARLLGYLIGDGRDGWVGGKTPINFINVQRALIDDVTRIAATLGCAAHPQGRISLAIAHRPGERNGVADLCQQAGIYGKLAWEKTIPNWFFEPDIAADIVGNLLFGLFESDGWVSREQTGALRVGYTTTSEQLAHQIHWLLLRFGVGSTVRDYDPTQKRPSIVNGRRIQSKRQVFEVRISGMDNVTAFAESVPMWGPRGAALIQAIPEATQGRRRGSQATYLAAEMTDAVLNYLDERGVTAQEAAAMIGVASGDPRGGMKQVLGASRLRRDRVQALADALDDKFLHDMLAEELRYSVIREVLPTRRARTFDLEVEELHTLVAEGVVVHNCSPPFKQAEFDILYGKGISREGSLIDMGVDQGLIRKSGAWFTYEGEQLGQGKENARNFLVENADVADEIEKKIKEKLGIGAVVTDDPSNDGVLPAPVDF
Description: Fluorescence Cell-Free Homogeneous Dose Retest to Identify Inhibitors of RecA-Intein Splicing Activity. [Related pubchem assays (depositor defined):AID2097, AID2223, AID489010, AID492950]. In kind it is functional.

Assay [4] addresses T3, Replicative DNA helicase DnaB (Mycobacterium tuberculosis, UniProt P9WMR3).
T3 sequence (P9WMR3 whole entry): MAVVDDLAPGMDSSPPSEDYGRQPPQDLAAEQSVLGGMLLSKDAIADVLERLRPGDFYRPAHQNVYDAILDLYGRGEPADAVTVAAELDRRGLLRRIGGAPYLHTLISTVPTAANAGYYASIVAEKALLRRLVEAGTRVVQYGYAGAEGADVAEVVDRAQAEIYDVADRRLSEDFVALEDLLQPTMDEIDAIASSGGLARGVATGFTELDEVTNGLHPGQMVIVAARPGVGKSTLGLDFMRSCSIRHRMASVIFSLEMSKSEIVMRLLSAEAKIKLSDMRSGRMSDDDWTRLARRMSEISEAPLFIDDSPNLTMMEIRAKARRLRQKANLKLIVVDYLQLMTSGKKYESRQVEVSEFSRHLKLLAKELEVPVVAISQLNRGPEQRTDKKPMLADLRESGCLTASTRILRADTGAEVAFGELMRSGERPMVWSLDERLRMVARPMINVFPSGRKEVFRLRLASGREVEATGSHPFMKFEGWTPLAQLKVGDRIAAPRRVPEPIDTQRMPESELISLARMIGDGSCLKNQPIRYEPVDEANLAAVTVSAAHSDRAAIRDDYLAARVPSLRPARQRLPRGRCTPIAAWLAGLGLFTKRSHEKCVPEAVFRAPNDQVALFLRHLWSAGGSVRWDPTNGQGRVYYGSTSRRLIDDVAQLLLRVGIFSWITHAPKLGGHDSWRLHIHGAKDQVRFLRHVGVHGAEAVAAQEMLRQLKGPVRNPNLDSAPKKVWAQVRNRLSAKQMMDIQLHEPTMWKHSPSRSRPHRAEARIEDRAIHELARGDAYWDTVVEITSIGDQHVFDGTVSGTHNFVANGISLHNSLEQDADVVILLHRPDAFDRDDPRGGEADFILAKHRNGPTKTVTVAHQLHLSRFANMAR
Description: DnaB intein splicing inhibitors, dose response, biochemical, cell-free fluorescence (AID 449749). It counts as functional.

Assay [5] concerns the target T4, Sentrin-specific protease 8 (Homo sapiens, UniProt Q96LD8).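 Further: luminescence read-out of SENP8 inhibition, dose-response confirmation following an ultra-high-throughput screen.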
T4 sequence (Q96LD8 whole entry): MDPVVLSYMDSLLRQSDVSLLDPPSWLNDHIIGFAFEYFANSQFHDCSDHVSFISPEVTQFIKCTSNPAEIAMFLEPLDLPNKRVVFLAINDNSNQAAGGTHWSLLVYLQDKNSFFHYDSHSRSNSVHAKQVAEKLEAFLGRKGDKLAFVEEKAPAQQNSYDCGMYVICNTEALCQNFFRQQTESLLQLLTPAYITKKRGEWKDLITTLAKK
In kind it is functional.

For assay [6], the target named is T5, Caspase-3 (Homo sapiens, UniProt P42574).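 Further: Dose-response selectivity test against caspase-3 for candidate inhibitors of sentrin-specific proteases (SENPs).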
T5 sequence (P42574 whole entry): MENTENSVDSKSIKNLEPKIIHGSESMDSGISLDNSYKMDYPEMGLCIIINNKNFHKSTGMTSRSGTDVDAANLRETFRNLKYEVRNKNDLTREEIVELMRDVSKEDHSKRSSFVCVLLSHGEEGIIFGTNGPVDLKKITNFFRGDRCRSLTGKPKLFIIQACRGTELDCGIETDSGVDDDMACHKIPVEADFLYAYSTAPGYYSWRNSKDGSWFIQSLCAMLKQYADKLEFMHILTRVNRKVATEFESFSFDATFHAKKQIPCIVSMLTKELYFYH
It counts as functional.

The target in assay [7] is T6, Sentrin-specific protease 6 (Homo sapiens, UniProt Q9GZR1).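 Further: Luminescence-based dose-response confirmatory assay of SENP6 inhibition, following up an ultra-high-throughput screen.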
T6 sequence (Q9GZR1 whole entry): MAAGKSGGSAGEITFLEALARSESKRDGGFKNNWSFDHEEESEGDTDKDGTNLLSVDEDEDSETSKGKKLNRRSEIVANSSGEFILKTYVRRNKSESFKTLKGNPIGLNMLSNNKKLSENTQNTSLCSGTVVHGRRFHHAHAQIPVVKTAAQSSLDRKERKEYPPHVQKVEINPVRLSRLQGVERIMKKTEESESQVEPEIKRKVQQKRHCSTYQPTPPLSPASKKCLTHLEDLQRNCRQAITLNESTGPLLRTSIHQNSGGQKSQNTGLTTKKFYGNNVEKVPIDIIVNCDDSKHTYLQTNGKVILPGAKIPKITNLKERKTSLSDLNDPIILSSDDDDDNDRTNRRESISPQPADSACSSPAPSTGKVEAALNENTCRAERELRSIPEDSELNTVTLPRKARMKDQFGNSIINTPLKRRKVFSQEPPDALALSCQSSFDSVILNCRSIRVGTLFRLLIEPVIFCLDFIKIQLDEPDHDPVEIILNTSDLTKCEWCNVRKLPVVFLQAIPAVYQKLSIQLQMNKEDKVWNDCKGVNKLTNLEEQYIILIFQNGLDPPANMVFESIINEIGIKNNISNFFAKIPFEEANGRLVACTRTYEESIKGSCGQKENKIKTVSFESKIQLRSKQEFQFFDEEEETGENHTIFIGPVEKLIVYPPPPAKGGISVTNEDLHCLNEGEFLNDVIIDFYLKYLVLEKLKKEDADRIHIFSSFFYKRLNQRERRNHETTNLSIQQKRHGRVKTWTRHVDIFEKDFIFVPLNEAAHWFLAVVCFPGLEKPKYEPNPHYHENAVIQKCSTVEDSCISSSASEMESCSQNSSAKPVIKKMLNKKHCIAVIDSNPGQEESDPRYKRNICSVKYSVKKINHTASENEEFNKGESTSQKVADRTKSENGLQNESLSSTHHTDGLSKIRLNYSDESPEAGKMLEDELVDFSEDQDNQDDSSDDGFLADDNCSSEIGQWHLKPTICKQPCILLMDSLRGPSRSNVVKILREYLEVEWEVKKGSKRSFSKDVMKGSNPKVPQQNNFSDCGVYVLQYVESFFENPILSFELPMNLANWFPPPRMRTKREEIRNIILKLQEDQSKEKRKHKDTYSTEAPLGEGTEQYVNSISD
In kind it is functional.

Assay [8] is described as follows: cells. It counts as functional, cell-based.
The target of assay [9] is T7, Sentrin-specific protease 7 (Homo sapiens, UniProt Q9BQF6).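 Further: Luminescence-based dose-response confirmation of ultra-high-throughput screening hits, measuring inhibition of SENP7.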
T7 sequence (Q9BQF6 whole entry): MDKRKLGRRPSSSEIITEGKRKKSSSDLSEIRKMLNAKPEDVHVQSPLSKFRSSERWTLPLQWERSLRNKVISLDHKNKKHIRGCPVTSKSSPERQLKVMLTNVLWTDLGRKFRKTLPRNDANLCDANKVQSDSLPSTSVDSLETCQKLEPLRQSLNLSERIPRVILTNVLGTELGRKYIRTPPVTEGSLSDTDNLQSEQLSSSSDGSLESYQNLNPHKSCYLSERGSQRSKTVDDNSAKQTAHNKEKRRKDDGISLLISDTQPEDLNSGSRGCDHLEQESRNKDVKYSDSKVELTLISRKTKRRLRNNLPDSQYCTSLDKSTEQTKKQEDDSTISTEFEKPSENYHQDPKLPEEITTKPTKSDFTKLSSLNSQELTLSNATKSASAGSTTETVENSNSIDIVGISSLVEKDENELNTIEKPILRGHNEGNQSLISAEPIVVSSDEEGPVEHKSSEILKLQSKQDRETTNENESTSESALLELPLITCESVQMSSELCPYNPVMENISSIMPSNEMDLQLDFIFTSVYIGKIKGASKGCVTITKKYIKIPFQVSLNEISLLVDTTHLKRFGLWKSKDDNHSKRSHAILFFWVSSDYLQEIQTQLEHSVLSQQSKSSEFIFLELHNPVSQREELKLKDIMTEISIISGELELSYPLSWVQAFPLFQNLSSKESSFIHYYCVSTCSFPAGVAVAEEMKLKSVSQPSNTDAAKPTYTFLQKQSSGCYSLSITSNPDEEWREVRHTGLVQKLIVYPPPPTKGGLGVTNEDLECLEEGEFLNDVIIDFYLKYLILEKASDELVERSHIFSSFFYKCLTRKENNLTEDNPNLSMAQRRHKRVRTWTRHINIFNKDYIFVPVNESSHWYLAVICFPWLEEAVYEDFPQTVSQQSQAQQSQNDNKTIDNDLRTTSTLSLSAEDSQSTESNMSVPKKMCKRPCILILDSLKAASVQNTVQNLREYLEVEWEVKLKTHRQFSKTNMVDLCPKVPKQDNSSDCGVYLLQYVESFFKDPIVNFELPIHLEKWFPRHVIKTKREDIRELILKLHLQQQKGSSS
It counts as functional.

The test system of assay [10] is HEK293. Description: inhibitors of LMP1-driven NF-kB reporter, dose response, cell-based, HEK293, luciferase, cherry-pick (AID 588343). It counts as functional. To be noted: Homo sapiens.
For assay [11], the target named is Nuclear receptor subfamily 0 group B member 1 (Homo sapiens, UniProt P51843). In kind it is functional, cell-based.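 Further: HEK293T cells transfected with SF-1 and DAX-1 plus StAR promoter luciferase reporter.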
Nuclear receptor subfamily 0 group B member 1, sequence (P51843 whole entry): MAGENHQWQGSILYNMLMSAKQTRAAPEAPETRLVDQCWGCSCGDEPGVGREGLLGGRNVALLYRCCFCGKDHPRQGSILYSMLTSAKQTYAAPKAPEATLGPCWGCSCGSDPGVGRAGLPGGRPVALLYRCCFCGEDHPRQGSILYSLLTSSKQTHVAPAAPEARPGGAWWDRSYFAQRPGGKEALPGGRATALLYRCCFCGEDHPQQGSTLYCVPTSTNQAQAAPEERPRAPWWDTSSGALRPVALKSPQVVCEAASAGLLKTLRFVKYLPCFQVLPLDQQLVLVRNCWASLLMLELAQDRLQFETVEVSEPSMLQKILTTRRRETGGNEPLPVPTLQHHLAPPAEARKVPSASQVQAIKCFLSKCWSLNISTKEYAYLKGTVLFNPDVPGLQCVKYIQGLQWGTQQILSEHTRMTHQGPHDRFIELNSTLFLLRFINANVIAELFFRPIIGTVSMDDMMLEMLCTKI
In assay [12] the target is Glyceraldehyde-3-phosphate dehydrogenase (Homo sapiens, UniProt P04406).
Glyceraldehyde-3-phosphate dehydrogenase, sequence (P04406 whole entry): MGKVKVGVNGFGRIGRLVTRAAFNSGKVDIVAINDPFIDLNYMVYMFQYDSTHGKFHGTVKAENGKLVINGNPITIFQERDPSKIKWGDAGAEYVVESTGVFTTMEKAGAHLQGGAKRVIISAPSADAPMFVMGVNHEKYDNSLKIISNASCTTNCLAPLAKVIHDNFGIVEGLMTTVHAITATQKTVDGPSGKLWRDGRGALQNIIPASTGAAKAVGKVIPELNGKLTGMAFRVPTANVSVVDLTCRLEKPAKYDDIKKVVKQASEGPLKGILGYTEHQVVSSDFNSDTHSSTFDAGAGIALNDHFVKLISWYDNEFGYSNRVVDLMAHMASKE
Assay [13] deals with Alkaline phosphatase, placental type (Homo sapiens, UniProt P05187). Put plainly: PLAP enzyme inhibitors, confirmation, biochemical, luminescence (AID 1512). It counts as functional.
Alkaline phosphatase, placental type, sequence (P05187 whole entry): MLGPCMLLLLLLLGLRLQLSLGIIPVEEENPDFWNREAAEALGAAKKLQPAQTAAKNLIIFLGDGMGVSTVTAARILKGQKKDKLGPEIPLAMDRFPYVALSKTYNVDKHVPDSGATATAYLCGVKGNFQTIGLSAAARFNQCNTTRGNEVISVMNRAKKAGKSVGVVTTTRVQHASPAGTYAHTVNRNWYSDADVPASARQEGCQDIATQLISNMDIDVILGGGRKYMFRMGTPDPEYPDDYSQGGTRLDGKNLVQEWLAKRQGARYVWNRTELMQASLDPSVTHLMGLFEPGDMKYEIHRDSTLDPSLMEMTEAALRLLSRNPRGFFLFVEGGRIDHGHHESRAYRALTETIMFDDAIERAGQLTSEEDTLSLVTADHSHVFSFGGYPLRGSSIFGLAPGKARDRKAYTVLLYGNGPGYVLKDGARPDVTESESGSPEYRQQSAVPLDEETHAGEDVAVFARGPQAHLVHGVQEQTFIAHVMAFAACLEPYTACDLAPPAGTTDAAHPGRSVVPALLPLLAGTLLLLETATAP

Activity calls are given as the source filed them.

This is an account of results in ChEMBL document CHEMBL1201862, “PubChem BioAssay data set” (2004).

Consider `Clc1ncnc2scc(C3COc4ccccc4O3)c12` (stereo not drawn), for which the EC50 is 21.4 µM (active) in assay [1] and 3.97 µM (active) in [3]. Further, in assay [2], the IC50 is 3.38 µM (active). In [4], the AC50 is 7.16 µM (active).
`Cc1ccn2c(c1)nc(=S)n2C(=O)c1ccccc1`: the IC50 was 94.9 µM (active) in [5]; 46.5 µM (active) in assay [6]; 72.3 µM (active) in assay [7]; > 67.5 µM (inactive) in assay [8]; 4.09 µM (active) in assay [9]; > 0.0926 µM (active) in assay [11]. For the same compound, the AC50 in assay [10] was 0.814 µM (active).
On to `O=C(c1cc(-c2ccc(Cl)cc2Cl)n[nH]1)N1CCCCCC1`, for which the IC50 is > 100 µM (not active) in assay [12] and > 100 µM (inactive) in [13].
